Common to all, as to test: MIC agar dilution test (Denley Multipoint Inoculator; Iso-Sensitest agar)
Assay type in all cases: cell-based
Background: Agar dilution tests growth on a series of plates holding different concentrations.

One assay concerns E. coli A261. The note with it: Escherichia coli, 37° C, ca. 20 h, read-out: MHK-Werte. The text has this:
(§1) Die minimalen Hemmkonzentrationen (MHK) wurden per Reihenverdünnungsverfahren auf Iso-Sensitest Agar (Oxoid) bestimmt. Für jede Prüfsubstanz wurde eine Reihe von Agarplatten hergestellt, die bei jeweils doppelter Verdünnung abfallende Konzentrationen des Wirkstoffes enthielten. Die Agarplatten wurden mit einem Multipoint-Inokulator (Denley) beimpft. Zum Beimpfen wurden Übernachtkulturen der Erreger verwandt, die zuvor so verdünnt wurden, daß jeder Impfpunkt ca. 10^4 koloniebildende Partikel enthielt. Die beimpften Agarplatten wurden bei 37° C bebrütet, und das Keimwachstum wurde nach ca. 20 Stunden abgelesen. Der MHK-Wert (µg/ml) gibt die niedrigste Wirkstoffkonzentration an, bei der mit bloßem Auge kein Keimwachstum zu erkennen war.
(§2) In der nachfolgenden Tabelle sind die MHK-Werte einiger der erfindungsgemäßen Verbindungen im Vergleich zum entsprechenden Racemat aufgeführt: […]

For the next assay, the system named is E. coli Neumann. The note with it: Escherichia coli, 37° C, ca. 20 h, read-out: MHK-Werte.
Description: as §1, §2

The subject of the next assay is Enteroc. faecalis 27101. The conditions noted are these: 37° C, ca. 20 h, read-out: MHK-Werte.
Description: as §1, §2

The subject of the next assay is Enteroc. faecalis 9790. The conditions noted are these: 37° C, ca. 20 h, read-out: MHK-Werte.
Description: as §1, §2

For the next assay, the system named is Klebsiella pneum. 63. The note with it: 37° C, ca. 20 h, read-out: MHK-Werte.
Description: as §1, §2

The next assay has as its system Klebsiella pneum. 8085. The conditions noted are these: 37° C, ca. 20 h, read-out: MHK-Werte.
Description: as §1, §2

The subject of the next assay is Morg. morg. 11006. The note with it: 37° C, ca. 20 h, read-out: MHK-Werte.
Description: as §1, §2

In another assay the test system is Morg. morg. 932. The note with it: 37° C, ca. 20 h, read-out: MHK-Werte.
Description: as §1, §2

For the next assay, the system named is Proteus mir. 8175. The conditions noted are these: 37° C, ca. 20 h, read-out: MHK-Werte.
Description: as §1, §2

The test system of the next assay is Proteus mir. 8223. The conditions noted are these: 37° C, ca. 20 h, read-out: MHK-Werte.
Description: as §1, §2

Another assay has as its system Proteus vulg. 1017. The conditions noted are these: 37° C, ca. 20 h, read-out: MHK-Werte.
Description: as §1, §2

For the next assay, the system named is Providencia stuartei. The note with it: Providencia stuartei (strain number not given), 37° C, ca. 20 h, read-out: MHK-Werte.
Description: as §1, §2

Assay [1] has as its system Pseudomonas aerog. Ellsworth. The note with it: 37° C, ca. 20 h, read-out: MHK-Werte.
Description: as §1, §2

The subject of assay [2] is Pseudomonas aerog. Walter. The conditions noted are these: 37° C, ca. 20 h, read-out: MHK-Werte.
Description: as §1, §2

Assay [3] deals with Serrratia marcescene 16040. The note with it: 37° C, ca. 20 h, read-out: MHK-Werte.
Description: as §1, §2

For a further assay, the system named is E. coli 455/7. The conditions noted are these: Escherichia coli, 37° C, ca. 20 h, read-out: MHK-Werte.
Description: as §1, §2

Assay [4] concerns Providencia stuartei 12052. The conditions noted are these: 37° C, ca. 20 h, read-out: MHK-Werte.
Description: as §1, §2

A further assay deals with Staph. aurens 133. The note with it: 37° C, ca. 20 h, read-out: MHK-Werte.
Description: as §1, §2

The subject of the next assay is Staph. aurens 1756. The conditions noted are these: 37° C, ca. 20 h, read-out: MHK-Werte.
Description: as §1, §2

The next assay concerns Staph. aurens FK 422. The conditions noted are these: 37° C, ca. 20 h, read-out: MHK-Werte.
Description: as §1, §2

Molecules are shown by their SMILES. Converted amounts (≈) assume the structure as drawn. Where a name gives a salt, the structure may show the parent alone.

Consider `NC1CCN(c2c(F)cc3c(=O)c(C(=O)O)cn(C4CC4)c3c2Cl)C1` (racemic) [*), 7-(3-Amino-1-pyrrolidinyl)-8-chlor-1-cyclopropyl-6-fluor-1,4-dihydro-4-oxo-3-chinolincarbonsäure, reference compound], for which the MIC in the assay on E. coli A261 came to 0.0019 µg/mL (≈ 0.00519 µM); in the assay on E. coli Neumann it was 0.0019 µg/mL (≈ 0.00519 µM); in the assay with Enteroc. faecalis 27101, 0.03 µg/mL (≈ 0.082 µM); with Enteroc. faecalis 9790, 0.03 µg/mL (≈ 0.082 µM); with Klebsiella pneum. 63 it was 0.0039 µg/mL (≈ 0.0107 µM); with Klebsiella pneum. 8085, 0.0039 µg/mL (≈ 0.0107 µM). Besides, the MIC in the assay on Morg. morg. 11006 is 0.0078 µg/mL (≈ 0.0213 µM); with Morg. morg. 932, 0.0019 µg/mL (≈ 0.00519 µM); in the assay on Proteus mir. 8175, 0.0078 µg/mL (≈ 0.0213 µM); with Proteus mir. 8223 it was 0.25 µg/mL (≈ 0.683 µM); in the assay on Proteus vulg. 1017, 0.0019 µg/mL (≈ 0.00519 µM); with Providencia stuartei, 0.0039 µg/mL (≈ 0.0107 µM). The MIC in assay [1] amounted to 0.03 µg/mL (≈ 0.082 µM); in assay [2], 0.06 µg/mL (≈ 0.164 µM); in assay [3], 0.25 µg/mL (≈ 0.683 µM).
Take `NC1CCN(c2c(F)cc3c(=O)c(C(=O)O)cn(C4CC4)c3c2F)C1` (racemic) [**), 7-(3-Amino-1-pyrrolidinyl)-6,8-difluor-1-cyclopropyl-1,4-dihydro-4-oxo-chinolincarbonsäure, reference compound]: the MIC in the assay with E. coli 455/7 is 0.25 µg/mL (≈ 0.716 µM); in the assay with E. coli A261, 0.0039 µg/mL (≈ 0.0112 µM); with E. coli Neumann it was 0.0039 µg/mL (≈ 0.0112 µM); in the assay on Klebsiella pneum. 63, 0.0078 µg/mL (≈ 0.0223 µM); in the assay on Klebsiella pneum. 8085, 0.0078 µg/mL (≈ 0.0223 µM); in the assay with Morg. morg. 11006 it was 0.0078 µg/mL (≈ 0.0223 µM). Besides, the MIC worked out at 0.0039 µg/mL (≈ 0.0112 µM) in the assay with Morg. morg. 932; 0.5 µg/mL (≈ 1.43 µM) in the assay on Proteus mir. 8223; 0.0039 µg/mL (≈ 0.0112 µM) in the assay with Proteus vulg. 1017; 0.25 µg/mL (≈ 0.716 µM) in [4]; 0.0078 µg/mL (≈ 0.0223 µM) in the assay with Providencia stuartei; 0.5 µg/mL (≈ 1.43 µM) in assay [3].
Take `N[C@H]1CCN(c2c(F)cc3c(=O)c(C(=O)O)cn(C4CC4)c3c2Cl)C1` [Beispiel 1, 7-[S-(3-Amino)-1-pyrrolidinyl]-8-chlor-1-cyclopropyl-6-fluor-1,4-dihydro-4-oxo-3-chinolincarbonsäure-Hydrochlorid]: the MIC in the assay on E. coli A261 is 0.0009 µg/mL; in the assay on E. coli Neumann, not above 0.0004 µg/mL; in the assay with Enteroc. faecalis 27101, 0.03 µg/mL; with Enteroc. faecalis 9790, 0.03 µg/mL; with Klebsiella pneum. 63, 0.0039 µg/mL; with Klebsiella pneum. 8085 it was 0.0039 µg/mL. The MIC in the assay with Morg. morg. 11006 is 0.0039 µg/mL; in the assay with Morg. morg. 932 it was 0.0019 µg/mL; in the assay on Proteus mir. 8175, 0.0078 µg/mL; in the assay with Proteus mir. 8223 it was 0.25 µg/mL; in the assay with Proteus vulg. 1017, not above 0.0004 µg/mL; with Providencia stuartei, 0.0019 µg/mL. Also, the MIC was found to be 0.03 µg/mL in [1]; 0.03 µg/mL in assay [2]; 0.0078 µg/mL with Staph. aurens 133; 0.0078 µg/mL with Staph. aurens 1756; 0.0078 µg/mL with Staph. aurens FK 422.
In the case of `N[C@@H]1CCN(c2c(F)cc3c(=O)c(C(=O)O)cn(C4CC4)c3c2Cl)C1` [Beispiel 2, 7-[R-(3-Amino)-1-pyrrolidinyl]-8-chlor-1-cyclopropyl-6-fluor-1,4-dihydro-4-oxo-3-chinolincarbonsäure -Hydrochlorid], the MIC was determined as 0.25 µg/mL in the assay with E. coli 455/7; 0.0039 µg/mL with E. coli A261; 0.0019 µg/mL in the assay with E. coli Neumann; 0.03 µg/mL in the assay on Enteroc. faecalis 27101; 0.06 µg/mL in the assay with Enteroc. faecalis 9790; 0.0078 µg/mL in the assay on Klebsiella pneum. 63. Besides, the MIC with Klebsiella pneum. 8085 came out at 0.0078 µg/mL; with Morg. morg. 11006, 0.0078 µg/mL; in the assay on Morg. morg. 932, 0.0039 µg/mL; in the assay with Proteus mir. 8175 it was 0.15 µg/mL; with Proteus mir. 8223, 0.25 µg/mL; with Proteus vulg. 1017, 0.0019 µg/mL. Moreover, the MIC in [4] was determined as 0.25 µg/mL; with Providencia stuartei, 0.0078 µg/mL; in assay [1] it was 0.06 µg/mL; in [2], 0.06 µg/mL; in assay [3], 0.25 µg/mL.
Turning to `N[C@H]1CCN(c2c(F)cc3c(=O)c(C(=O)O)cn(C4CC4)c3c2F)C1` [Beispiel 3, 7-[S-(3-Amino)-1-pyrrolidinyl]-1-cyclopropyl-6,8-difluor-1,4-dihydro-4-oxo-3-chinolincarbonsäure-Hydrochlorid], the MIC in the assay on E. coli 455/7 was 0.25 µg/mL; in the assay with E. coli A261 it was 0.0039 µg/mL; in the assay with E. coli Neumann, 0.0039 µg/mL; in the assay on Klebsiella pneum. 63, 0.0078 µg/mL; with Klebsiella pneum. 8085, 0.0078 µg/mL; with Morg. morg. 11006, 0.0078 µg/mL. The MIC in the assay on Morg. morg. 932 stood at 0.0039 µg/mL; in the assay with Proteus mir. 8223 it was 0.25 µg/mL; in the assay with Proteus vulg. 1017, 0.0039 µg/mL; in assay [4], 0.25 µg/mL; in the assay on Providencia stuartei, 0.0078 µg/mL; in assay [1], 0.62 µg/mL. In assay [3], the MIC was found to be 0.25 µg/mL.
Turning to `N[C@@H]1CCN(c2c(F)cc3c(=O)c(C(=O)O)cn(C4CC4)c3c2F)C1` [Beispiel 4, 7-[R-(3-Amino)-1-pyrrolidinyl]-1-cyclopropyl-6,8-difluor-1,4-dihydro-4-oxo-3-chinolincarbonsäure-Hydrochlorid], the MIC was determined as 0.5 µg/mL in the assay on E. coli 455/7; 0.0078 µg/mL in the assay with E. coli A261; 0.0078 µg/mL in the assay with E. coli Neumann; 0.0078 µg/mL in the assay with Morg. morg. 932; 0.5 µg/mL with Proteus mir. 8223; 0.0078 µg/mL in the assay with Proteus vulg. 1017. The MIC in assay [4] came out at 0.5 µg/mL; in the assay on Providencia stuartei it was 0.0015 µg/mL; in assay [2], 0.25 µg/mL; in assay [3], 1 µg/mL.
As for `Cc1c(F)c(N2CC[C@H](N)C2)cc2c1c(=O)c(C(=O)O)cn2C1CC1` [Beispiel 5, 7-[S-(3-Amino)-1-pyrrolidinyl]-1-cyclopropyl-6-fluor-1,4-dihydro-5-methyl-4-oxo-3-chinolincarbonsäure-Hydrochlorid], the MIC with E. coli 455/7 was found to be 2 µg/mL; in the assay on Enteroc. faecalis 9790 it was 0.25 µg/mL; with Proteus mir. 8223, 4 µg/mL; in [4] it was 4 µg/mL; in assay [1], 0.25 µg/mL; in assay [2], 0.5 µg/mL. In addition, the MIC in [3] came out at 2 µg/mL.
For `Cc1c(F)c(N2CC[C@@H](N)C2)cc2c1c(=O)c(C(=O)O)cn2C1CC1` [Beispiel 6, 7-[R-(3-Amino)-1-pyrrolidinyl]-1-cyclopropyl-6-fluor-1,4-dihydro-5-methyl-4-oxo-3-chinolincarbonsäure-Hydrochlorid], the MIC turned out to be 8 µg/mL with E. coli 455/7; 1 µg/mL in the assay with Enteroc. faecalis 27101; 2 µg/mL with Enteroc. faecalis 9790; 0.5 µg/mL in the assay on Proteus mir. 8175; 8 µg/mL with Proteus mir. 8223; 8 µg/mL in [4]. Also, the values for the MIC in assay [1], in [2] and in [3] were 1 µg/mL, 2 µg/mL and 4 µg/mL, respectively.

For the origin of these results see patent EP0391169A2, “Enantiomeric pure 7-(3-amino-1-pyrrolidinyl)-chinolon-and-naphthyridon carboxylic acids” (BAYER AG, priority 1989, dated 1990).
